The results in this text go back to patent publication US11034700B2, “Substituted pyrrolidine compound and use thereof” (Takeda Pharmaceutical Company Limited, priority 2017, dated 2021).

In the test the target is T1, human OX2 receptor (Homo sapiens, UniProt O43614).
T1 construct: expressed in transfected cells
T1 sequence (O43614 1-444): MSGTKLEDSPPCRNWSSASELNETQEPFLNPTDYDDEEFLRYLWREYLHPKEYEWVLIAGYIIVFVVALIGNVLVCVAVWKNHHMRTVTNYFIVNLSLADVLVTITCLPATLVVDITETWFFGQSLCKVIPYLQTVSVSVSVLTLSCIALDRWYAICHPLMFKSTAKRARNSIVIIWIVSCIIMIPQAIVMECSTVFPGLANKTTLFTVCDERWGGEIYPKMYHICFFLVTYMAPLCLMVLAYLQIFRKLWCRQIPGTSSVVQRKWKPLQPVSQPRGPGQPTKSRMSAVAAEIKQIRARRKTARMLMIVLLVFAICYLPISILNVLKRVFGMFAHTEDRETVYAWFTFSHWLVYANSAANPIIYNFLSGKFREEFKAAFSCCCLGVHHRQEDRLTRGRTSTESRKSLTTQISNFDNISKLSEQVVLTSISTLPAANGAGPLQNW
The experiment in a line: Measurement of orexin type 2 receptor agonist activity (Fluo-4 calcium fluorescence, FDSS). The settings on record: compound at 3 μM; CHO cells forcibly expressing human OX2 receptor; DMSO = 0%, orexin A (human) 10 nM = 100%. The format is cell-based. From the text: Experimental Example 1: Obtainment of Cell Stably Expressing Human Orexin Type 2 Receptor (hOX2R)
To obtain a cell clone stably expressing human orexin type 2 receptor, human orexin type 2 receptor cDNA was inserted into pcDNA3.1(+) plasmid vector (Invitrogen), and a plasmid DNA for expression of human orexin type 2 receptor (pcDNA3.1(+)/hOX2R) was cloned. The plasmid DNA was introduced into CHO-dhfr cell by an electroporation method, and human orexin type 2 receptor expressing clone cells were obtained by limiting dilution method by using G418 drug resistance as a selection marker.
Experimental Example 2: Measurement of Orexin Type 2 Receptor Agonist Activity
CHO cells forcibly expressing human OX2 receptor were seeded in each well of 384 well black transparent bottom plate (BD Falcon) at 7,500 cells/well, and cultured for one day in a 5% CO2 incubator at 37° C. After removal of the medium in the cell plate, assay buffer A containing a calcium indicator (HESS (Life Technologies), 20 mM HEPES (Life Technologies), 0.1% BSA (Wako Pure Chemical Industries, Ltd.), 2.5 μg/mL Fluo-4 AM (DOJINDO Chemical), 0.08% Pluronic F127 (DOJINDO Chemical), 1.25 mM probenecid (DOJINDO Chemical)) was added at 30 μL/well. The plate was stood for 30 min in a 5% CO2 incubator at 37° C., and further stood at room temperature for 30 min. A test compound prepared by diluting with assay buffer B (HESS, 20 mM HEPES, 0.1% BSA) was added at 10 μL/well, and the fluorescence value was measured by FDSSμCELL (Hamamatsu Photonics K.K.) every one sec for 1 min, and thereafter every two sec for 1 min 40 sec. The activity (%) of the test compound was calculated assuming that variation in the fluorescence value when DMSO was added instead of the test compound was 0% […], and variation in the fluorescence value when orexin A (human) (PEPTIDE INSTITUTE, INC.) was added at the final concentration of 10 nM was 100% […]. The activity of each compound at the concentration of 3 μM was shown below.

In the case of `COc1ccccc1S(=O)(=O)Nc1cccc(O[C@@H]2CN(C(=O)c3cc(C)ccc3C)C[C@H]2C#N)c1` (relative stereo) [Example 126, trans-N-(3-((4-cyano-1-(2,5-dimethylbenzoyl)pyrrolidin-3-yl)oxy)phenyl)-2-methoxybenzenesulfonamide], the “OX2R agonist activity (3 μM, %)” value came to 67%.

With `COc1ccc(-c2cccc(C(=O)N(C)C)c2)cc1S(=O)(=O)Nc1cccc(O[C@H]2CCN(C(=O)c3ccccc3N(C)C)C2)c1` [Example 9, 3′-((3-(((3S)-1-(2-(dimethylamino)benzoyl)pyrrolidin-3-yl)oxy)phenyl)sulfamoyl)-4′-methoxy-N,N-dimethylbiphenyl-3-carboxamide], the “OX2R agonist activity (3 μM, %)” value is 91%.

In the case of `COc1ccccc1S(=O)(=O)Nc1cc(F)cc(O[C@@H]2CN(C(=O)c3cc(C)ccc3C)C[C@H]2OC)c1` (relative stereo) [Example 100, trans-N-(3-((1-(2,5-dimethylbenzoyl)-4-methoxypyrrolidin-3-yl)oxy)-5-fluorophenyl)-2-methoxybenzenesulfonamide], the “OX2R agonist activity (3 μM, %)” value is given as 102%.

For the compound `COc1ccc(N2CCCC(C(=O)N3CCCC3)C2)cc1S(=O)(=O)Nc1cccc(O[C@H]2CCN(C(=O)c3c(C)cccc3C)C2)c1` (stereo partly drawn) [Example 42, N-(3-(((3S)-1-(2,6-dimethylbenzoyl)pyrrolidin-3-yl)oxy)phenyl)-2-methoxy-5-(3-(pyrrolidin-1-ylcarbonyl)piperidin-1-yl)benzenesulfonamide], the “OX2R agonist activity (3 μM, %)” value is 97%.

As for `COc1ccc(-c2cccc(C(=O)N(C)C)c2)cc1S(=O)(=O)Nc1cccc(O[C@@H]2CN(C(=O)c3cc(C)ccc3C)C[C@@H]2OC)c1` (relative stereo) [Example 59, cis-3′-((3-((1-(2,5-dimethylbenzoyl)-4-methoxypyrrolidin-3-yl)oxy)phenyl)sulfamoyl)-4′-methoxy-N,N-dimethylbiphenyl-3-carboxamide], the “OX2R agonist activity (3 μM, %)” value is 103%.

In the case of `COc1ccc(-c2cccc(C(=O)N(C)C)c2)cc1S(=O)(=O)Nc1cccc(O[C@H]2CCN(C(=O)C3(c4ccccc4)CC3)C2)c1` [Example 16, 4′-methoxy-N,N-dimethyl-3′-((3-(((3S)-1-((1-phenylcyclopropyl)carbonyl)pyrrolidin-3-yl)oxy)phenyl)sulfamoyl)biphenyl-3-carboxamide], the “OX2R agonist activity (3 μM, %)” value is recorded as 99%.

Turning to `CO[C@@H]1CN(C(=O)c2cc(C)ccc2C)C[C@H]1Oc1cccc(NS(=O)(=O)c2ccccc2F)c1` [Example 82, N-(3-(((3R,4R)-1-(2,5-dimethylbenzoyl)-4-methoxypyrrolidin-3-yl)oxy)phenyl)-2-fluorobenzenesulfonamide], the “OX2R agonist activity (3 μM, %)” value amounted to 101%.

Regarding `COc1ccc(-c2cccc(C(=O)N(C)C)c2)cc1S(=O)(=O)Nc1cccc(O[C@@H]2CN(C(=O)c3cc(C)ccc3C)C[C@H]2OC)c1` (relative stereo) [Example 60, trans-3′-((3-((1-(2,5-dimethylbenzoyl)-4-methoxypyrrolidin-3-yl)oxy)phenyl)sulfamoyl)-4′-methoxy-N,N-dimethylbiphenyl-3-carboxamide], the “OX2R agonist activity (3 μM, %)” value was 105%.

Consider `COc1ccc(-c2cccc(C(=O)N(C)C)c2)cc1S(=O)(=O)Nc1cccc(OC2CCN(C(=O)c3cccc(C)c3)C2)c1` (stereo not drawn) [Example 2, 4′-methoxy-N,N-dimethyl-3′-((3-((1-(3-methylbenzoyl)pyrrolidin-3-yl)oxy)phenyl)sulfamoyl)bipheny-3-carboxamide], for which the “OX2R agonist activity (3 μM, %)” value turned out to be 90%.

As to `COc1ccc(-c2cccc(C(=O)N(C)C)c2)cc1S(=O)(=O)Nc1cccc(O[C@H]2CCN(C(=O)c3cccc4c3OCC4)C2)c1` [Example 28, 3′-((3-(((3S)-1-(2,3-dihydro-1-benzofuran-7-ylcarbonyl)pyrrolidin-3-yl)oxy)phenyl)sulfamoyl)-4′-methoxy-N,N-dimethylbiphenyl-3-carboxamide], the “OX2R agonist activity (3 μM, %)” value was 101%.

For `CO[C@@H]1CN(C(=O)c2c(C)cccc2C)C[C@H]1Oc1cccc(NS(=O)(=O)c2sccc2Cl)c1F` (relative stereo) [Example 111, trans-3-chloro-N-(3-((1-(2,6-dimethylbenzoyl)-4-methoxypyrrolidin-3-yl)oxy)-2-fluorophenyl)thiophene-2-sulfonamide], the “OX2R agonist activity (3 μM, %)” value came to 52%.

For the compound `COc1ccccc1S(=O)(=O)Nc1cc(C)cc(O[C@@H]2CN(C(=O)c3cc(C)ccc3C)C[C@H]2OC)c1` (relative stereo) [Example 105, trans-N-(3-((1-(2,5-dimethylbenzoyl)-4-methoxypyrrolidin-3-yl)oxy)-5-methylphenyl)-2-methoxybenzenesulfonamide], the “OX2R agonist activity (3 μM, %)” value was 94%.

`Cc1cccc(C)c1C(=O)N1CC[C@H](Oc2cccc(NS(=O)(=O)c3cc(-c4cccc(C(=O)N(C)C)c4)ccc3F)c2)C1` [Example 35, 3′-((3-(((3S)-1-(2,6-dimethylbenzoyl)pyrrolidin-3-yl)oxy)phenyl)sulfamoyl)-4′-fluoro-N,N-dimethylbiphenyl-3-carboxamide]: the “OX2R agonist activity (3 μM, %)” value is reported as 99%.

As for `Cc1cccc(C)c1C(=O)N1CC[C@H](Oc2cccc(NS(=O)(=O)c3sccc3Cl)c2)C1` [Example 38, 3-chloro-N-(3-(((3S)-1-(2,6-dimethylbenzoyl)pyrrolidin-3-yl)oxy)phenyl)thiophene-2-sulfonamide], the “OX2R agonist activity (3 μM, %)” value was determined as 44%.

For the compound `COc1ccc(-c2cccc(C(=O)N(C)C)c2)cc1S(=O)(=O)Nc1cccc(O[C@H]2CCN(C(=O)c3cnn(C)c3C(F)(F)F)C2)c1` [Example 29, 4′-methoxy-N,N-dimethyl-3′-((3-(((3S)-1-((1-methyl-5-(trifluoromethyl)-1H-pyrazol-4-yl)carbonyl)pyrrolidin-3-yl)oxy)phenyl)sulfamoyl)biphenyl-3-carboxamide], the “OX2R agonist activity (3 μM, %)” value is 98%.

For the compound `COc1ccccc1S(=O)(=O)Nc1ccnc(O[C@@H]2CN(C(=O)c3cc(C)ccc3C)C[C@H]2OC)c1` (relative stereo) [Example 101, trans-N-(2-((1-(2,5-dimethylbenzoyl)-4-methoxypyrrolidin-3-yl)oxy)pyridin-4-yl)-2-methoxybenzenesulfonamide], the “OX2R agonist activity (3 μM, %)” value is on record as 95%.

Consider `COc1ccc(-c2cccc(C(=O)N(C)C)c2)cc1S(=O)(=O)Nc1cccc(O[C@H]2CCN(C(=O)c3cccnc3C(F)(F)F)C2)c1` [Example 23, 4′-methoxy-N,N-dimethyl-3′-((3-(((3S)-1-((2-(trifluoromethyl)pyridin-3-yl)carbonyl)pyrrolidin-3-yl)oxy)phenyl)sulfamoyl)biphenyl-3-carboxamide], for which the “OX2R agonist activity (3 μM, %)” value was 88%.

As for `COc1ccc(-c2cccc(C(=O)N(C)C)c2)cc1S(=O)(=O)Nc1cccc(O[C@H]2CCN(C(=O)c3ccc(C)cc3C)C2)c1` [Example 25, 3′-((3-(((3S)-1-(2,4-dimethylbenzoyl)pyrrolidin-3-yl)oxy)phenyl)sulfamoyl)-4′-methoxy-N,N-dimethylbiphenyl-3-carboxamide], the “OX2R agonist activity (3 μM, %)” value is 97%.

In the case of `COc1ccc(N2CCCC3(CCCCO3)C2)cc1S(=O)(=O)Nc1cccc(O[C@H]2CCN(C(=O)c3c(C)cccc3C)C2)c1` (stereo partly drawn) [Example 41, N-(3-(((3S)-1-(2,6-dimethylbenzoyl)pyrrolidin-3-yl)oxy)phenyl)-2-methoxy-5-(1-oxa-8-azaspiro[5.5]undec-8-yl)benzenesulfonamide], the “OX2R agonist activity (3 μM, %)” value is listed as 97%.

As for `CCCS(=O)(=O)Nc1cccc(O[C@H]2CCN(C(=O)c3c(C)cccc3C)C2)c1` [Example 36, N-(3-(((3S)-1-(2,6-dimethylbenzoyl)pyrrolidin-3-yl)oxy)phenyl)propane-1-sulfonamide], the “OX2R agonist activity (3 μM, %)” value was found to be 23%.

On to `COc1ccccc1S(=O)(=O)Nc1ccc(F)c(O[C@@H]2CN(C(=O)c3cc(C)ccc3C)C[C@H]2OC)c1` (relative stereo) [Example 86, trans-N-(3-((1-(2,5-dimethylbenzoyl)-4-methoxypyrrolidin-3-yl)oxy)-4-fluorophenyl)-2-methoxybenzenesulfonamide], for which the “OX2R agonist activity (3 μM, %)” value came out at 80%.
